Bases are written 5' to 3'; sugars and linkages follow in the same order, as letters with counts (s phosphorothioate, o phosphodiester; PS: all linkages phosphorothioate). The collection does not say whether C is 5-methylated. l = locked nucleic acid (LNA); d = 2'-deoxy (DNA)

This series deals with Tau. The experiment in a line: rat primary cortical neurons, FLIPR, 25 uM ASO.
Regarding TCCCAGCGTGATCT (sugars l3 d8 l3, PS), the calcium oscillation score was 3.83 % of control.
The result for “TCCCAGCGTGATCTTCCATC (sugars l4 d11 l5, PS)” reads 55.4 % of control; that for “TCCCAGCGTGATCTTCCATC (sugars l5 d11 l4, PS)”, 85.2 % of control.
The result for “TCCCAGCGTGATCTTCCATC (sugars ldlllddddddddddlldll, PS)” reads 74.5 % of control.
For “TCCCAGCGTGATCTTCCATC (sugars lldllddddddddddlldll, PS)”, the calcium oscillation score was 106 % of control.
“TCCCATCACTAGCACTA (sugars l2 d13 l2, PS)”: the calcium oscillation score is 32.8 % of control.
As to “TCCCCACCCAAACTCCA (sugars l2 d13 l2, PS)”, the calcium oscillation score was 80.8 % of control.
For “TCCCCACCCAAACTCCAA (sugars l2 d14 l2, PS)”, the calcium oscillation score was 76.5 % of control.
“TCCCCATTTATCCTTCA (sugars l2 d13 l2, PS)”: the calcium oscillation score was 65.9 % of control.
“TCCCCATTTATCCTTCAT (sugars l2 d13 l3, PS)”: the calcium oscillation score is 77.3 % of control.
The result for “TCCCCCAAAATATCTCA (sugars l2 d12 l3, PS)” reads 87.1 % of control; that for “TCCCCCAAAATATCTCAA (sugars l3 d13 l2, PS)”, 53.9 % of control.
For the sequence “TCCCGTCTTTGCTTTTACTG (sugars l3 d14 l3, PS)”, the calcium oscillation score was 3.7 % of control.
Regarding “TCCCTAATCCCCAAAGA (sugars l2 d13 l2, PS)”, the calcium oscillation score is 53.9 % of control.
The value for “TCCCTTAACAATATGCT (sugars l2 d11 l4, PS)” was 75.1 % of control; that for TCCCTTAATTTCAC (sugars l3 d8 l3, PS) was 133 % of control.
The value for TCCCTTAATTTCACC (sugars l3 d9 l3, PS) was 80.5 % of control; that for TCCCTTTCAAACCAGC (sugars l2 d10 l4, PS) was 92.3 % of control; that for “TCCTAAGTCAACCACAC (sugars l4 d11 l2, PS)” was 56.6 % of control.
For “TCCTAAGTCAACCACACC (sugars l2 d14 l2, PS)”, the calcium oscillation score is 69 % of control.
For the sequence TCCTAATCCTGTGC (sugars l3 d8 l3, PS), the calcium oscillation score is 65 % of control.
The result for TCCTAATCCTGTGCT (sugars l3 d9 l3, PS) reads 140 % of control; that for TCCTAATCCTGTGCTT (sugars l3 d10 l3, PS), 23 % of control; that for “TCCTAATTCCCAAATTCCT (sugars l2 d15 l2, PS)”, 57.4 % of control.
Take “TCCTAATTCCCAAATTCCTC (sugars l2 d15 l3, PS)”: the calcium oscillation score was 76.6 % of control.
The value for “TCCTCACTTTACACATTA (sugars l3 d13 l2, PS)” was 62.5 % of control; that for “TCCTCACTTTACACATTAA (sugars l4 d13 l2, PS)” was 62.5 % of control; that for “TCCTCACTTTACACATTAAA (sugars l4 d14 l2, PS)” was 70.3 % of control.
In the case of TCCTCCATTGTAACTA (sugars l4 d10 l2, PS), the calcium oscillation score is 85.3 % of control.
Turning to “TCCTCCATTGTAACTAC (sugars l2 d11 l4, PS)”, the calcium oscillation score was 63.9 % of control.
For the sequence “TCCTCCATTGTAACTACT (sugars l2 d14 l2, PS)”, the calcium oscillation score was 59.4 % of control.
“TCCTCTCCTTTAAGAAA (sugars l3 d12 l2, PS)”: the calcium oscillation score was 79.1 % of control.
The value for “TCCTGGCCATCTTATGCTGA (sugars l3 d14 l3, PS)” was 31.2 % of control; that for TCCTGGTTTATGATGG (sugars l3 d10 l3, PS) was 2.3 % of control.
The result for “TCCTGGTTTATGATGGATGT (sugars l3 d14 l3, PS)” reads 5.81 % of control; that for TCCTGTGCTTCAGG (sugars l3 d8 l3, PS), 108 % of control.
For the sequence TCCTGTGCTTCAGGCC (sugars l3 d10 l3, PS), the calcium oscillation score was 75.5 % of control.
With TCCTTCTAAGTACAAT (sugars l4 d8 l4, PS), the calcium oscillation score was 54.1 % of control.
The value for TCCTTCTTCATTCTTG (sugars l3 d10 l3, PS) was 23.8 % of control.
With “TCCTTGAAGTCAAGCTTCTC (sugars l3 d14 l3, PS)”, the calcium oscillation score is 49.8 % of control.
Turning to “TCCTTTGTAATTCCTTCT (sugars l3 d13 l2, PS)”, the calcium oscillation score is 56.4 % of control.
Regarding “TCGAAACCAAGGTCCCACCA (sugars l3 d14 l3, PS)”, the calcium oscillation score was 28.2 % of control.
The result for TCGATGCTGCCGGT (sugars l3 d8 l3, PS) reads 13 % of control; that for TCGATGCTGCCGGTGG (sugars l3 d10 l3, PS), 33.9 % of control; that for “TCGCGGAAGGTCAGCTTGTG (sugars l3 d14 l3, PS)”, 20.3 % of control.
TCGCTTCCAGTCCC (sugars l3 d8 l3, PS): the calcium oscillation score is 142 % of control.
For the sequence TCGCTTCCAGTCCCGT (sugars l3 d10 l3, PS), the calcium oscillation score is 110 % of control.
TCGTCAGCTAGCGTGG (sugars l3 d10 l3, PS): the calcium oscillation score is 55.2 % of control.
Consider “TCTAAGTAGACCCTGGCCAC (sugars l3 d14 l3, PS)”, for which the calcium oscillation score is 23.8 % of control.
For the sequence “TCTAATTTAGTCACCAT (sugars l4 d10 l3, PS)”, the calcium oscillation score was 96 % of control.
As for “TCTACATTTTTGTCTCA (sugars l3 d11 l3, PS)”, the calcium oscillation score was 47.1 % of control.
For TCTACCATGTCGATGC (sugars l3 d10 l3, PS), the calcium oscillation score was 51.8 % of control.
The value for “TCTAGTTATACAGTTGGCCC (sugars l3 d14 l3, PS)” was 21.4 % of control; that for “TCTCAAAAATCAACGCC (sugars l4 d10 l3, PS)” was 94.5 % of control; that for “TCTCAAATCAAACTAATAT (sugars l4 d11 l4, PS)” was 58.1 % of control.
The result for “TCTCAAGTCTTATTCTC (sugars l3 d11 l3, PS)” reads 38.6 % of control; that for “TCTCAGATTTTACTTCC (sugars l4 d11 l2, PS)”, 49.3 % of control; that for “TCTCAGCTCTTCCATAAGCA (sugars l3 d14 l3, PS)”, 82.6 % of control.
For “TCTCAGTGGAGCCGATCTTG (sugars l3 d14 l3, PS)”, the calcium oscillation score was 0 % of control.
For TCTCGCGGAAGGTC (sugars l3 d8 l3, PS), the calcium oscillation score is 75.7 % of control.
The result for TCTCTAATTGTCCAATA (sugars l4 d9 l4, PS) reads 69 % of control; that for “TCTCTCTAGACATCTCA (sugars l2 d12 l3, PS)”, 68.4 % of control.
The result for “TCTCTCTTAACTTTATTTTA (sugars l3 d13 l4, PS)” reads 80.8 % of control.
The result for TCTCTGCTTACAAAATC (sugars l4 d9 l4, PS) reads 66.8 % of control.
In the case of “TCTCTTAACTTTATTTTATT (sugars l4 d12 l4, PS)”, the calcium oscillation score is 84.9 % of control.
In the case of TCTGGCATGGGCACG (sugars l3 d9 l3, PS), the calcium oscillation score was 119 % of control.
The value for “TCTGTCACTTACTACTCA (sugars l3 d13 l2, PS)” was 66 % of control; that for TCTGTCTTGGCTTTG (sugars l3 d9 l3, PS) was 40.6 % of control.
The value for “TCTTAATTCATTTAATTCTC (sugars l4 d12 l4, PS)” was 87.1 % of control.
The value for “TCTTACAGCCAAATGCAGTC (sugars l3 d14 l3, PS)” was 23.9 % of control; that for “TCTTAGAGGACTGCAACGCA (sugars l3 d14 l3, PS)” was 25.7 % of control.
With “TCTTAGCATCAGAGGTTTCA (sugars l3 d14 l3, PS)”, the calcium oscillation score was 18.5 % of control.
“TCTTAGTCATCTTCCCT (sugars l3 d12 l2, PS)”: the calcium oscillation score is 68.6 % of control.
For “TCTTATTGCTTTCCAAT (sugars l3 d10 l4, PS)”, the calcium oscillation score is 101 % of control.
For the sequence “TCTTCACATCCCAACTA (sugars l2 d12 l3, PS)”, the calcium oscillation score was 126 % of control.
As to TCTTCAGGTCTGGCAT (sugars l3 d10 l3, PS), the calcium oscillation score is 39.1 % of control.
For TCTTCATTCTTGCCCA (sugars l2 d12 l2, PS), the calcium oscillation score is 38.1 % of control.
For the sequence “TCTTCCACTACAAGCTCC (sugars l2 d14 l2, PS)”, the calcium oscillation score is 55.8 % of control.
The value for “TCTTCCATCACTTCGAACTC (sugars l3 d14 l3, PS)” was 45.2 % of control.
For the sequence “TCTTCCTTTGTAATTCCT (sugars l3 d13 l2, PS)”, the calcium oscillation score was 57.9 % of control.
As for “TCTTCTAATATCCTTGC (sugars l3 d11 l3, PS)”, the calcium oscillation score was 55.7 % of control.
TCTTGGCGGAAGACGG (sugars l3 d10 l3, PS): the calcium oscillation score was 100 % of control.
Take TCTTGTGATGCAGGA (sugars l3 d9 l3, PS): the calcium oscillation score was 91.8 % of control.
The value for “TCTTGTTCTAACCCCACA (sugars l2 d14 l2, PS)” was 68.1 % of control; that for “TCTTTATTAACACTCCA (sugars l4 d10 l3, PS)” was 72.6 % of control; that for “TCTTTATTAACACTCCAC (sugars l2 d12 l4, PS)” was 64.6 % of control.
On to “TCTTTATTAACACTCCACA (sugars l4 d13 l2, PS)”, for which the calcium oscillation score was 62.5 % of control.
Turning to “TCTTTGAACACCCCATCT (sugars l2 d14 l2, PS)”, the calcium oscillation score is 41 % of control.
Turning to “TCTTTGCTTTTACTGACCAT (sugars l3 d14 l3, PS)”, the calcium oscillation score is 29.6 % of control.
As for “TGAACAGGAGAGCCATTTCC (sugars l3 d14 l3, PS)”, the calcium oscillation score was 7.14 % of control.
The value for “TGAAGTCAAGCTTCTCAGAT (sugars l3 d14 l3, PS)” was 0 % of control; that for “TGAAGTCCCGAGCCAAAGCC (sugars l3 d14 l3, PS)” was 0 % of control; that for TGAATAACATTAACCC (sugars l4 d8 l4, PS) was 54 % of control.
The value for TGACCTCAACTCTACC (sugars l4 d10 l2, PS) was 68.5 % of control; that for “TGAGCACTAACTCTAAGTAG (sugars l3 d14 l3, PS)” was 21.4 % of control.
As to “TGAGCCACACTTGGAGGTCA (sugars l3 d14 l3, PS)”, the calcium oscillation score was 4.52 % of control.

The values are drawn from the OligoGym collection.
